# Laboratory results: patent publication US9469650B2, “Melampomagnolide B derivatives” (BOARD OF TRUSTEES OF THE UNIVERSITY OF ARKANSAS, priority 2013, dated 2016)
# Like-named read-outs stand apart in the source and are kept apart here.
# Legend:
# K-562 = test: panel of 60 human tumor cell lines, growth inhibition (Leukemia); conditions: for CC50: K562, read-out: LC50
# MOLT-4 = test: as above; conditions: Homo sapiens; for GI50: MOLT-4; for CC50: MOLT-4, read-out: LC50; for IC (TGI): MOLT-4, read-out: TGI
# SR = test: as above; conditions: Homo sapiens; for CC50: read-out: LC50; for IC (TGI): read-out: TGI
# LOX IMVI = test: panel of 60 human tumor cell lines, growth inhibition (Melanoma); conditions: Homo sapiens; for CC50: read-out: LC50; for IC (TGI): read-out: TGI
# M14 = test: as above; conditions: Homo sapiens; for GI50: M14; for CC50: M14, read-out: LC50; for IC (TGI): M14, read-out: TGI
# SK-MEL-28 = test: as above; conditions: Homo sapiens; for GI50: SK-MEL-28; for CC50: SK-MEL-28, read-out: LC50; for IC (TGI): SK-MEL-28, read-out: TGI
# SF-268 = test: panel of 60 human tumor cell lines, growth inhibition (CNS Cancer); conditions: Homo sapiens; for GI50: SF-268; for CC50: SF-268, read-out: LC50; for IC (TGI): SF-268, read-out: TGI
# SF-295 = test: as above; conditions: Homo sapiens; for GI50: SF-295; for CC50: SF-295, read-out: LC50; for IC (TGI): SF-295, read-out: TGI
# SNB-19 = test: as above; conditions: Homo sapiens; for GI50: SNB-19; for CC50: SNB-19, read-out: LC50; for IC (TGI): SNB-19, read-out: TGI
# SNB-75 = test: as above; conditions: Homo sapiens; for GI50: SNB-75; for CC50: SNB-75, read-out: LC50; for IC (TGI): SNB-75, read-out: TGI
# HCC-2998 = test: panel of 60 human tumor cell lines, growth inhibition (Colon Cancer); conditions: Homo sapiens; for GI50: HCC 2998; for CC50: HCC 2998, read-out: LC50; for IC (TGI): HCC 2998, read-out: TGI
# SW-620 = test: as above; conditions: Homo sapiens; for CC50: SW-620, read-out: LC50; for IC (TGI): SW-620, read-out: TGI
# ACHN = test: panel of 60 human tumor cell lines, growth inhibition (Renal Cancer); conditions: Homo sapiens; for CC50: read-out: LC50; for IC (TGI): read-out: TGI
# CAKI-1 = test: as above; conditions: Homo sapiens; for GI50: CAKI-1; for CC50: CAKI-1, read-out: LC50; for IC (TGI): CAKI-1, read-out: TGI
# UO-31 = test: as above; conditions: Homo sapiens; for GI50: UO-31; for CC50: UO-31, read-out: LC50; for IC (TGI): UO-31, read-out: TGI
# HS 578T = test: panel of 60 human tumor cell lines, growth inhibition (Breast Cancer); conditions: Homo sapiens, Hs-578T; for CC50: read-out: LC50; for IC (TGI): read-out: TGI
# T-47D = test: as above; conditions: Homo sapiens, T47D; for CC50: read-out: LC50; for IC (TGI): read-out: TGI
# NCI-H226 = test: panel of 60 human tumor cell lines, growth inhibition (Non-Small Cell Lung Cancer); conditions: Homo sapiens; for GI50: NCI-H226; for CC50: NCI-H226, read-out: LC50; for IC (TGI): NCI-H226, read-out: TGI
# [1] = K-562, Log10 Concentration −4.0
# [2] = K-562, Log10 Concentration −5.0
# [3] = K-562, Log10 Concentration −6.0
# [4] = K-562, Log10 Concentration −7.0
# [5] = K-562, Log10 Concentration −8.0
compound,measurement,setting,value
"C=C1C(=O)O[C@H]2[C@H]1CC/C(COC(=O)NCCN1CCCC1)=C\CC[C@@]1(C)O[C@@H]21 [JVM 59, ((1aR,7aS,10aS,10bS,E)-1a-methyl-8-methylene-9-oxo-1a,2,3,6,7,7a,8,9,10a,10b-decahydrooxireno[2′,3′:9,10]cyclodeca[1,2-b]furan-5-yl)methyl-(2-(pyrrolidin-1-yl)ethyl)carbamate]",Percent Growth,HL-60(TB); Log10 Concentration −4.0,−63%
same,Percent Growth,HL-60(TB); Log10 Concentration −5.0,22%
same,Percent Growth,HL-60(TB); Log10 Concentration −6.0,95%
same,Percent Growth,HL-60(TB); Log10 Concentration −7.0,96%
same,Percent Growth,HL-60(TB); Log10 Concentration −8.0,88%
same,GI50,"K-562; Homo sapiens, K562",3.26 µM
same,CC50,K-562; Homo sapiens,> 100 µM
same,TGI,"K-562; K-562, five dose",1.86E−5
same,Percent Growth,K-562; [1],−36%
same,Percent Growth,K-562; [2],13%
same,Percent Growth,K-562; [3],89%
same,Percent Growth,K-562; [4],79%
same,Percent Growth,K-562; [5],87%
same,GI50,MOLT-4,3.48 µM
same,CC50,MOLT-4,89.7 µM
same,IC (TGI),MOLT-4,17.5 µM
same,GI50,SR,10.2 µM
same,CC50,SR,> 100 µM
same,IC (TGI),SR,39.3 µM
same,GI50,LOX IMVI; 5-dose assay,7.88 µM
same,GI50,LOX IMVI; five dose,7.88 µM
same,CC50,LOX IMVI,60.6 µM
same,IC (TGI),LOX IMVI,23.4 µM
same,GI50,M14,9.65 µM
same,CC50,M14,58.1 µM
same,IC (TGI),M14,24 µM
same,GI50,SK-MEL-28,12.3 µM
same,CC50,SK-MEL-28,52 µM
same,IC (TGI),SK-MEL-28,25.3 µM
same,GI50,SF-268,14.7 µM
same,CC50,SF-268,60.8 µM
same,IC (TGI),SF-268,30 µM
same,GI50,SF-295,48.8 µM
same,CC50,SF-295,> 100 µM
same,IC (TGI),SF-295,> 100 µM
same,GI50,SNB-19,59.1 µM
same,CC50,SNB-19,> 100 µM
same,IC (TGI),SNB-19,> 100 µM
same,GI50,SNB-75,18 µM
same,CC50,SNB-75,> 100 µM
same,IC (TGI),SNB-75,79.3 µM
same,GI50,HCC-2998,19.2 µM
same,CC50,HCC-2998,67.9 µM
same,IC (TGI),HCC-2998,36.1 µM
same,GI50,"SW-620; SW-620, SW-620, five dose",3.46 µM
same,GI50,"SW-620; SW-620, SW-620, 5-dose assay",3.46 µM
same,CC50,SW-620,47.2 µM
same,IC (TGI),SW-620,13.8 µM
same,GI50,ACHN,3.8 µM
same,CC50,ACHN,39.4 µM
same,IC (TGI),ACHN,14.7 µM
same,GI50,CAKI-1,6.86 µM
same,CC50,CAKI-1,51.8 µM
same,IC (TGI),CAKI-1,21.2 µM
same,GI50,UO-31,13.4 µM
same,CC50,UO-31,75.3 µM
same,IC (TGI),UO-31,31.8 µM
same,GI50,HS 578T,19.7 µM
same,CC50,HS 578T,> 100 µM
same,IC (TGI),HS 578T,69 µM
same,GI50,T-47D,4.86 µM
same,CC50,T-47D,63.8 µM
same,IC (TGI),T-47D,19.2 µM
same,GI50,NCI-H226,35.3 µM
same,CC50,NCI-H226,> 100 µM
same,IC (TGI),NCI-H226,> 100 µM
C=C1C(=O)O[C@H]2[C@H]1CC/C(COC(=S)n1ccnc1)=C\CC[C@@]1(C)O[C@@H]21 [JVM 66],Percent Growth,HL-60(TB); Log10 Concentration −4.0,−62%
same,Percent Growth,HL-60(TB); Log10 Concentration −5.0,16%
same,Percent Growth,HL-60(TB); Log10 Concentration −6.0,102%
same,Percent Growth,HL-60(TB); Log10 Concentration −7.0,101%
same,Percent Growth,HL-60(TB); Log10 Concentration −8.0,95%
same,CC50,K-562; Homo sapiens,> 100 µM
same,Percent Growth,K-562; [1],1%
same,Percent Growth,K-562; [2],16%
same,Percent Growth,K-562; [3],100%
same,Percent Growth,K-562; [4],90%
same,Percent Growth,K-562; [5],96%
same,TGI,"K-562; K-562, NCI five dose",>1.00E−4
same,GI50,MOLT-4,6.38 µM
same,CC50,MOLT-4,> 100 µM
same,IC (TGI),MOLT-4,34.4 µM
same,GI50,SR,6.17 µM
same,CC50,SR,> 100 µM
same,IC (TGI),SR,38.5 µM
same,GI50,LOX IMVI; NCI five dose,3.23 µM
same,CC50,LOX IMVI,43.1 µM
same,IC (TGI),LOX IMVI,11.8 µM
same,GI50,M14,12.6 µM
same,CC50,M14,89.2 µM
same,IC (TGI),M14,33.6 µM
same,GI50,SK-MEL-28,15.7 µM
same,CC50,SK-MEL-28,99.3 µM
same,IC (TGI),SK-MEL-28,39.5 µM
same,GI50,SF-268,21.9 µM
same,CC50,SF-268,> 100 µM
same,IC (TGI),SF-268,67.7 µM
same,GI50,SF-295,45 µM
same,CC50,SF-295,> 100 µM
same,IC (TGI),SF-295,106 µM
same,GI50,SNB-19,54.3 µM
same,CC50,SNB-19,> 100 µM
same,IC (TGI),SNB-19,> 100 µM
same,GI50,SNB-75,39.3 µM
same,CC50,SNB-75,> 100 µM
same,IC (TGI),SNB-75,> 106 µM
same,GI50,HCC-2998,16.8 µM
same,CC50,HCC-2998,63.2 µM
same,IC (TGI),HCC-2998,12.6 µM
same,GI50,"SW-620; SW-620, SW-620, NCI five dose",4.86 µM
same,CC50,SW-620,78.3 µM
same,IC (TGI),SW-620,21.7 µM
same,GI50,ACHN,6.73 µM
same,CC50,ACHN,50.7 µM
same,IC (TGI),ACHN,20.4 µM
same,GI50,CAKI-1,12.6 µM
same,CC50,CAKI-1,73.8 µM
same,IC (TGI),CAKI-1,30.5 µM
same,GI50,UO-31,8.37 µM
same,CC50,UO-31,58.1 µM
same,IC (TGI),UO-31,23.4 µM
same,GI50,HS 578T,26.5 µM
same,CC50,HS 578T,> 100 µM
same,IC (TGI),HS 578T,> 100 µM
same,GI50,T-47D,12.9 µM
same,CC50,T-47D,> 100 µM
same,IC (TGI),T-47D,42.4 µM
same,GI50,NCI-H226,99.6 µM
same,CC50,NCI-H226,> 100 µM
same,IC (TGI),NCI-H226,> 100 µM
